# Experimental data published in patent US20260158148A1, “PRODRUG INTENDED FOR THE TREATMENT OF BACTERIAL […] TO A[…] THE BETA-LACTAM FAMILY” (Osta Therapeutics, priority 2022, published 2026).
# System: beta-lactamase
# Experiment: In-vitro cleavage of the OSTA-1 prodrug by beta-lactamase (release of trans-cinnamaldehyde monitored by UV absorption at 285 nm)
# Format: biochemical
# Experimental: Cleavage of the OSTA-1 prodrug was tested in vitro by contact with a beta-lactamase in saline aqueous media.
# The cleavage test is performed in physiological saline buffer (Phosphate Buffer Saline, PBS) at pH 7.0. The OSTA-1 molecule is added at a concentration of 100 microM, along with commercial beta-lactamase at a concentration of 1 unit per mL. Incubation is carried out at 37° C. The appearance of free trans-cinnamaldehyde in the medium is then monitored by UV absorption at 285 nm.
# The release of the active ingredient, in this case trans-cinnamaldehyde, was monitored by UV absorption at 285 nm. The progress of the release of the prodrug molecule's active ingredient (100 microM) was observed, in the presence and absence of beta-lactamase.
smiles,measurement,setting,value
COC(/C=C/c1ccccc1)N(C)C(=O)OCC1=C(C(=O)O)N2C(=O)[C@@H](NC(=O)Cc3cccs3)[C@H]2SC1 (stereo partly drawn) [OSTA-1],cleavability by beta-lactamase (conclusion),"in vitro, saline aqueous media",cleavable by beta-lactamase and releases the active ingredient
same,spontaneous release of the active ingredient in the absence of beta-lactamase,"prodrug 100 microM, PBS pH 7.0, 37° C., no beta-lactamase, UV absorption at 285 nm",no spontaneous release
same,release of the active ingredient (trans-cinnamaldehyde) in the presence of beta-lactamase,"prodrug 100 microM, commercial beta-lactamase 1 unit per mL, PBS pH 7.0, 37° C., UV absorption at 285 nm, after two hours",released in significant quantities
